Source: patent publication US12661335B2, “Halogenated xanthene-containing topical anti-gram-positive bacterial ophthalmic composition and method” (Provectus Pharmatech, Inc., priority 2021, dated 2026)

These compounds were tested on M. smegmatis 607 ™ (RB mutant).
Format: cell-based, Mycobacterium smegmatis

Row | Compound | susceptibility of the RB-resistant strain to TB drugs
1 | NC[C@H]1O[C@@H](O[C@H]([C@H]2O[C@@H](n3ccc(=O)[nH]c3=O)[C@H](O)[C@@H]2O)[C@H](NCCCC(=O)NCc2ccc(N3CCC(Oc4ccc(OC(F)(F)F)cc4)CC3)cc2)C(N)=O)[C@H](O)[C@@H]1O [APPB, aminouridyl phenoxypiperidinylbenzyl butanamide] | susceptible
2 | NCC[C@H](O)C(=O)N[C@@H]1C[C@H](N)[C@@H](O[C@H]2O[C@H](CN)[C@@H](O)[C@H](O)[C@H]2O)[C@H](O)[C@H]1O[C@H]1O[C@H](CO)[C@@H](O)[C@H](N)[C@H]1O [Amikacin] | susceptible
3 | CCc1cc(C(N)=S)ccn1 [Ethionamide (ETH), Ethionamide] | susceptible
4 | NNC(=O)c1ccncc1 [Isoniazid (INH), Isoniazid] | cross-resistance
5 | Capreomycin | susceptible
